{
  "source": "patent US9913866B2",
  "about": "“Selective cell targeting using adenovirus and chemical dimers” (priority 2012, dated 2018)",
  "origin": "cited, not measured here",
  "key": {"[1]": {"molecular_target": "FKBP and a mutant FRB domain (mTOR mutation T2098L) (Homo sapiens, UniProt P42345+P62942, T2098L)", "sequence (P42345 2012-2144 T2098L limits assumed)": "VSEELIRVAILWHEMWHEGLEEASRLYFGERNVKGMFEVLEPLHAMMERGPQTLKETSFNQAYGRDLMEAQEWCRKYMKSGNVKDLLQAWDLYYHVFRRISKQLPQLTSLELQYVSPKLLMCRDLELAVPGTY", "sequence (P62942 2-108 limits assumed)": "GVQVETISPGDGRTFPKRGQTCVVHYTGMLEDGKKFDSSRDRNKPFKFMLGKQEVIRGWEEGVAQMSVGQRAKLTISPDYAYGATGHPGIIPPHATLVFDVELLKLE"}, "[2]": {"molecular_target": "FKBP and wt FRB domain (Homo sapiens, UniProt P62942)", "sequence (P62942 2-108 limits assumed)": "as above"}},
  "data": [
    {"smiles": "CO[C@H]1[C@@H](O)[C@H](C)C[C@H](C)/C=C/C=C/C=C(\\C)[C@@H](c2c[nH]c3c(C)cccc23)C[C@@H]2CC[C@@H](C)[C@@](O)(O2)C(=O)C(=O)N2CCCC[C@H]2C(=O)O[C@H]([C@H](C)C[C@@H]2CC[C@@H](O)[C@H](OC)C2)C[C@H](O)[C@H](C)/C=C(\\C)[C@H]1O", "note": "[AP21967]", "values": [
      {"measurement": "heterodimer formation", "setting": "[1]", "result": "able to form stable heterodimers"},
      {"measurement": "heterodimer formation", "setting": "[2]", "result": "not with the wt FRB domain"}
    ]}
  ]
}
